In patent US20250000940A1, “USE OF FRUCTUS LYCII GLUCOPEPTIDE” (NINGXIA QITAI TECHNOLOGY CO., LTD., priority 2021, published 2025):

Assays:
Type in all cases: in vivo, Kunming mice
MPTP model mice [1] = assay: CatWalk gait analysis in MPTP model mice; conditions: intragastric for 2 weeks after modeling, 30 mg/kg (rasagiline 1 mg/kg), vs. MPTP group, n=6, FIG. 4-7
Description: Instruction: CatWalk gait analysis is a system for analyzing the gait of rodents, including the balance maintenance ability, the use of limbs and the stability analysis of movement state and gait. The main accessories include built-in red LED light panel and green fluorescent glass panel, high-frequency camera under the glass panel, image transmission system and computer software and hardware. Before inspection, the camera height will be adjusted to 60 cm, the effective length and width of the runway will be delimited in the software, and the gain of the camera will be set to 28.12 dB. The process of each mouse passing through the glass plate smoothly was recorded at room temperature, and the longest time was set to 10 s, that is, the data was valid if the mouse passed through the set distance within 10 s. The principle of recording is that the paw prints of mice are illuminated by the fluorescent reflection of the fluorescent lamp in the glass panel, captured by the camera below and transmitted to the computer, and the recorded video data are statistically analyzed by the software of the system. According to the location of paw print, the pressure of paw on the glass panel, the distance between different paw prints, the velocity of mouse gait and the regularity of gait, the gait of mice was qualitatively and quantitatively analyzed. […]

MPTP model mice [2] = assay: Pole-climbing test in MPTP model mice; conditions: intragastric for 2 weeks after modeling, 30 mg/kg (rasagiline 1 mg/kg), vs. MPTP group, n=6, FIG. 2
Description: Administration method: the mice were randomly divided into 6 groups with 6 mice in each group, i.e., the control group, the MPTP model group (intraperitoneal injection of MPTP, 30 mg/kg, established after five days of administration and two days of rest), the MPTP+Fructus lycii extract (water extraction) group (administration after modeling, 30 mg/kg, intragastric administration for two weeks), the MPTP+Fructus lycii polysaccharide group (administration after modeling, 30 mg/kg, intragastric administration for two weeks), the MPTP+Fructus lycii glucopeptide group (administration after modeling, 30 mg/kg, intragastric administration for 2 weeks), the MPTP+rasagiline group (administration after modeling, 1 mg/kg, intragastric administration for 2 weeks). Instruction: the pole-climbing test is a behavioral test to record the time difference of mice on the pole so as to detect the limb movement coordination of mice. The whole experiment was completed in a quiet and dark environment. The pole was composed of an iron frame with a diameter of 1 cm and a height of 60 cm and a small ball with a diameter of 1.5 cm fixed on its top. […] The time required for the mice to climb to the bottom from the beginning was recorded. If the time exceeded 1 minute, it was recorded as 1 minute. Each mouse was tested for 5 rounds each time, and the results were expressed as the average values.

MPTP model mice [3] = assay: Rotarod test in MPTP model mice; conditions: intragastric for 2 weeks after modeling, 30 mg/kg (rasagiline 1 mg/kg), vs. MPTP group, n=6, FIG. 3
Description: Instruction: rotarod test was used to detect the motor coordination ability of mice by recording the time of the mice on the cylindrical rotarod using the rotarod fatigue apparatus. The test was conducted in a quiet and dark environment. The rotarod fatigue apparatus can accommodate five mice at a time for the test. Each mouse has a separate track, with a connected computer software for recording the time when the mouse falls. When the mouse rotates passively with the rotarod for more than two consecutive circles, the timing should also be stopped. Before restraint stress, the mice were trained for a week in advance to adapt, and each mouse was trained for three rounds every time. After restraint stress, the mice were detected once a week, and the parameter was set at a speed ramp from 5 r/min to 30 r/min at a constant rate within 5 min. The time of the mice on the rotarod within 5 min was recorded, and the time exceeding 5 min was recorded as 5 min. Each mouse was detected for 3 rounds each time, and the average value was calculated. The test interval of each group of mice was at least 30 min. Before each change of the mice, the apparatus was cleaned with 75% ethanol to remove the odor before the next group of test.

Compound: C#CCN[C@@H]1CCc2ccccc21 [rasagiline, Rasagiline]
- gait behavior (average speed, maximum variation, cadence, number of steps) (MPTP model mice [1]): significantly restore the gait behavior disorder
- pole-climbing time (time to climb from top to bottom of the pole) (MPTP model mice [2]): significantly shorten the pole-climbing time
- on-rod time (anti-fatigue time on the rotarod) (MPTP model mice [3]): significantly restore the on-rod time
